{
  "source": "paper PMC11249239",
  "about": "(PLOS ONE, 2024)",
  "key": {"[1]": {"system": "pan-HDACs (HeLa cell extract)", "test": "In vitro HDAC enzyme inhibition, HeLa cell nuclear extract (Fluor de Lys)", "type": "biochemical", "settings": "± margin of error of 95% confidence interval", "description": "(§1) In vitro HDAC enzyme inhibition assays utilized HeLa cell extract for pan-HDACs with the substrate Fluor-Lys following the manufacturer’s protocol (BIOMOL/ENZO, Plymouth Meeting, PA). For isoform assays, purified HDAC1, HDAC3, and HDAC6 recombinant proteins produced by expressing epitope-tagged full-length proteins in the sf9 baculovirus expression vector system were purchased from PBS Bioscience (San Diego, CA). […] The reaction commenced with the addition of HDAC substrate at room temperature and proceeded for 30 minutes. Termination of the reaction was achieved by adding 50 μL of Fluor de Lys (TM) Assay Developer. The fluorophore was excited at 360 nm and emitted light at 460 nm. Relative fluorescence was measured using a FlexStation II plate reader (Molecular Devices, Sunnyvale, CA)."}, "[2]": {"molecular_target": "T1, HDAC1 (Homo sapiens, UniProt Q13547)", "T1 construct": "purchased PBS Bioscience [sic] (San Diego, CA); host or cells: Sf9 insect cells / baculovirus", "test": "In vitro HDAC isoform inhibition, purified recombinant HDAC1", "type": "biochemical", "settings": "purified recombinant protein; ± margin of error of 95% confidence interval; read-out: IC50 HDAC inhibition activity in vitro, HDAC 1", "description": "as §1"}, "[3]": {"molecular_target": "HDAC8 (Homo sapiens, UniProt Q9BY41)", "sequence (Q9BY41 whole entry, species assumed)": "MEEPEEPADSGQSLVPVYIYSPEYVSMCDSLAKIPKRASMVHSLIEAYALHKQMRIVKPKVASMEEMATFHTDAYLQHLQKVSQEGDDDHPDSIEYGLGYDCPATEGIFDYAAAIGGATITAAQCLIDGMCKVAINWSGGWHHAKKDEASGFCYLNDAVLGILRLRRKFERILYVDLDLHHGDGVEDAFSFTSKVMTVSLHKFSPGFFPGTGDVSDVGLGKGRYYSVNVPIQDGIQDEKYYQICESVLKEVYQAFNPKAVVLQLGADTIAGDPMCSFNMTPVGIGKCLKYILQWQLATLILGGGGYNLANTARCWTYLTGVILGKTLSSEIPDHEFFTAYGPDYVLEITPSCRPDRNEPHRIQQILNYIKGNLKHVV", "test": "HDAC8 activity inhibition (data not shown)", "type": "biochemical"}, "[4]": {"molecular_target": "HDAC5 (Homo sapiens, UniProt Q9UQL6)", "sequence (Q9UQL6 whole entry, species assumed)": "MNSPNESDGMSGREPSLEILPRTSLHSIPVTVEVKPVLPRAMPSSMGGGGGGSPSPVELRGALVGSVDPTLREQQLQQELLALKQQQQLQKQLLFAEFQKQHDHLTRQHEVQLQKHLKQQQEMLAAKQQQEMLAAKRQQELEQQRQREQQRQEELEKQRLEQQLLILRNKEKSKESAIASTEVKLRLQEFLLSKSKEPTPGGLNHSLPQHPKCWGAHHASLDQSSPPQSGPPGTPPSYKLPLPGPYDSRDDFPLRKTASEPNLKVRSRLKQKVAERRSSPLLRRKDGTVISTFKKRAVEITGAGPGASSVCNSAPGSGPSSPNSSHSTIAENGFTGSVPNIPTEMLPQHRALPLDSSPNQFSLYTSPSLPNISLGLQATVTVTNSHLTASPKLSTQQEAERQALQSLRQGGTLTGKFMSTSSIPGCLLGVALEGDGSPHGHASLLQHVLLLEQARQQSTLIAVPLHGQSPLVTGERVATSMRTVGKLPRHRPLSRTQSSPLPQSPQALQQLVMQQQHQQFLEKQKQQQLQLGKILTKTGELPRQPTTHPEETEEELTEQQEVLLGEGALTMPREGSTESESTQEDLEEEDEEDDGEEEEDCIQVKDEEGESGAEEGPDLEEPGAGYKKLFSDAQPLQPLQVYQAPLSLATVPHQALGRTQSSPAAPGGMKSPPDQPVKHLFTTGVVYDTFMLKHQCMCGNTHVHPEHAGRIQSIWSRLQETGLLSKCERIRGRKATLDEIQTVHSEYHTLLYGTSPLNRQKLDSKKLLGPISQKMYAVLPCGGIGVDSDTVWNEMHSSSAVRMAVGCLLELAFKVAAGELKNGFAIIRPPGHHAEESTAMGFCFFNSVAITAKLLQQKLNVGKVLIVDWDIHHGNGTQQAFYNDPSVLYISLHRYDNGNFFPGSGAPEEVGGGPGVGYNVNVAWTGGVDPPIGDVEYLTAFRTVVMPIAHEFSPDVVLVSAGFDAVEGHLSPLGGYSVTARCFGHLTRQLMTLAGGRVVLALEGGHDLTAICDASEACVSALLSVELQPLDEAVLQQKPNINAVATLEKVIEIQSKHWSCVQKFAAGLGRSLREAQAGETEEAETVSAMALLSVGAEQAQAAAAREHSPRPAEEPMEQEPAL", "test": "HDAC5 activity inhibition (data not shown)", "type": "biochemical", "settings": "read-out: IC50 class IIa HDAC5 inhibition"}, "[5]": {"system": "MCF10A normal breast epithelial cells", "test": "Cell growth inhibition (CCK8 cytotoxicity assay), MCF10A", "type": "cell-based", "settings": "48 h treatment, read-out: Average EC50 ± SD, cell growth inhibition"}, "[6]": {"system": "MCF7 (ER+) cells", "test": "Cell growth inhibition (CCK8 cytotoxicity assay), MCF7", "type": "cell-based", "settings": "Homo sapiens, 48 h treatment, read-out: Average EC50 ± SD, cell growth inhibition"}, "[7]": {"system": "T47D (ER+) cells", "test": "Cell growth inhibition (CCK8 cytotoxicity assay), T47D", "type": "cell-based", "settings": "48 h treatment, read-out: Average EC50 ± SD, cell growth inhibition"}, "[8]": {"system": "triple negative breast cancer cells", "test": "Cell growth inhibition, triple negative breast cancer cells stated together", "type": "cell-based", "settings": "range over triple negative breast cancer cells; read-out: effective growth inhibition concentrations (EC50)", "description": "Prism-GraphPad software was used to analyze data."}, "[9]": {"system": "MCF7 cells", "test": "Radiation clonogenic survival assay, MCF7", "type": "cell-based", "settings": "0.3 μM for 24 h then graded γ-radiation, DMSO control 1.5 Gy", "method": "Logarithmically growing cells were treated with vehicle (0.1% Dimethyl Sulfoxide) or SP-1-303 (0.3 μM) for 24 h followed by sham or γ-radiation using a Mark-30 irradiator with a 137Cs source at a fixed dose rate of 2.71 Gy/min. Cells were exposed to graded doses at room temperature. After 10–14 days, cells were fixed and stained with crystal violet, and colonies were counted. The surviving fractions of treated cells were normalized using the plating efficiencies of untreated controls. Radiation survival curves were generated by fitting to the single-hit, multitarget model."}, "[10]": {"system": "p-ATM/S1981", "test": "Western blot, phosphorylation of ATM", "type": "cell-based", "settings": "MCF7 and MDA-MB-231; 1 μM; within 0.5 h", "description": "(§2) Following treatment of cells with SP-1-303 over a time course, total or nuclear proteins were extracted and analyzed on 4–20% trisglycine gradient sodium dodecyl sulfate polyacrylamide gel electrophoresis (SDS-PAGE). Subsequently, membranes were probed with antibodies targeting specific proteins in accordance with the manufacturers’ protocols, including ATM (ab78), p-BRCA1 (ab90528), BRCA1 (ab191042), p-p53/S15 (ab1431), acetylated H3K9 (ab12179) from Abcam, as well as p-ATM (# 5883) and p53 (#9282) from Cell Signaling, α-tubulin (T6793) and β-actin (A3854) from Sigma-Aldrich, ER-α (cat# MA1-80216, Invitrogen) and HDAC2 (BML-SA402. Enzo). Protein images were captured using ECL Prime Western Blotting Detection Reagents (Cat#. RPN2232, Amersham) and the Amersham Imager 600. For immunofluorescent analysis, formalin fixed cells were permeabilized with 0.1% Triton X-100 in TBS for 10 minutes at room temperature, followed by blocking with 1% Blocker BSA for 15 minutes at room temperature. Cells were then probed with a phospho-ATM monoclonal antibody (MA5-15185) and DyLight 488 goat anti-mouse IgG secondary antibody at room temperature. Actin was stained with DyLight 554 phalloidin, while nuclei were stained with 4’,6-diamidino-2-phenylindole dye (DAPI). Images were captured using a Nikon Epi Fluorescent microscopy."}, "[11]": {"system": "acetylated α-tubulin", "test": "Western blot, acetylation of α-tubulin", "type": "cell-based", "settings": "MCF7 and MDA-MB-231; 1 μM; time dependent", "description": "as §2"}, "[12]": {"system": "ER-α", "test": "Western blot of nuclear extracts, ER-α expression", "type": "cell-based", "settings": "MCF7; 1 μM; from 2h to 6h", "description": "as §2"}, "[13]": {"system": "p53", "test": "Western blot of nuclear extracts, p53 expression", "type": "cell-based", "settings": "1 μM, time course", "description": "as §2"}, "[14]": {"system": "phosphorylated BRCA1", "test": "Western blot, phosphorylated BRCA1", "type": "cell-based", "settings": "1 μM", "description": "as §2"}, "[15]": {"system": "phosphorylated p53", "test": "Western blot, phosphorylated p53", "type": "cell-based", "settings": "1 μM", "description": "as §2"}},
  "note": "Like-named read-outs stand apart in the source and are kept apart here.",
  "data": [
    {"smiles": "Cc1[nH]c2ccccc2c1C1=C(c2c(C)[nH]c3ccccc23)C(=O)N(CCCCCCC(=O)NO)C1=O", "note": "[SP-1-303]", "values": [
      {"measurement": "IC50", "setting": "[1]", "value": "120 ± 58", "unit": "nM"},
      {"measurement": "IC50", "setting": "[2]", "value": "12 ± 1", "unit": "nM"},
      {"measurement": "IC50", "setting": "[3]", "value": 310, "unit": "nM"},
      {"measurement": "IC50", "setting": "[4]", "value": "> 20000", "unit": "nM"},
      {"measurement": "EC50", "setting": "[5]", "value": 12200, "unit": "nM"},
      {"measurement": "EC50", "setting": "[5]; Homo sapiens, MCF-10A, 48 h", "value": "~12000", "unit": "nM"},
      {"measurement": "EC50", "setting": "[6]", "value": "340 ± 122", "unit": "nM"},
      {"measurement": "EC50", "setting": "[7]", "value": "321 ± 27", "unit": "nM"},
      {"measurement": "EC50", "setting": "[7]; Homo sapiens, T47D, 48 h", "value": 320, "unit": "nM"},
      {"measurement": "EC50", "setting": "[8]", "value": "1200 to 2500", "unit": "nM"},
      {"measurement": "D0, radiation clonogenic survival", "setting": "[9]", "value": 1.3, "unit": "Gy"},
      {"measurement": "phosphorylation of ATM/S1981", "setting": "[10]", "value": "significantly enhanced"},
      {"measurement": "acetylation of α-tubulin", "setting": "[11]", "value": "gradually increased"},
      {"measurement": "ER-α expression", "setting": "[12]", "value": "gradual reduction"},
      {"measurement": "expression of p53", "setting": "[13]; MCF7", "value": "gradual increase"},
      {"measurement": "expression of p53", "setting": "[13]; MDA-MB-231", "value": "no significant change"},
      {"measurement": "phosphorylated BRCA1", "setting": "[14]; MCF7, within 1h to 2h", "value": "induction"},
      {"measurement": "phosphorylated BRCA1", "setting": "[14]; MDA-MB-231", "value": "without significant alteration"},
      {"measurement": "phosphorylated p53", "setting": "[15]; MCF7, within 1h to 2h", "value": "induction"},
      {"measurement": "phosphorylated p53", "setting": "[15]; MDA-MB-231", "value": "no phosphorylated p53"}
    ]}
  ]
}
